Experimental data as given in US12023399B2, “Cleansing composition with pyrrolidone carboxylic acid” (The Procter & Gamble Company, priority 2021, dated 2024).

Test system: Staphylococcus aureus (ATCC #6538)
Assay: S. aureus growth on pH adjusted TSA plates
Format: cell-based
Settings: TSA plate pH 4.51 supplemented with 0.03% PCA, ~48 hrs at 33° C.; pH 5.99 plate without PCA shows colonies
Protocol: The Staphylococcus aureus (ATCC #6538) bacteria cultures used herein can be created from commercially available Trypticase Soy Agar (TSA) plates that are streaked and incubated 17-20 hours at 35° C.±2° C. The resulting bacteria are grown in a conventional saline buffer solution with the optical density adjusted to deliver 10^9 to 10^10 cfu/mL. A sample of the bulk culture can be diluted 1:1,000,000 in saline buffer. 100 ul of the dilute bacteria culture is streak plated onto a TSA plate that is pH adjusted to pH 5.99 or onto a TSA plate that is pH adjusted to pH 4.51 and supplemented with 0.03% PCA. Plates are incubated ˜48 hrs at 33° C.±2° C. and photographed for growth as shown in FIGS. 2A (with pH 5.99) and 2B (with pH 4.5 and 0.03% PCA).

## O=C1CC[C@@H](C(=O)O)N1 [PCA, pyrrolidone carboxylic acid]
  S. aureus colonies after incubation: no colonies are observed
